Experimental data as given in PubChem BioAssay (NCI).
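Five concentrations, 48 hours, 96-well plates. GI50 = concentration required for 50% inhibition of growth. TGI denotes the concentration required for complete inhibition of growth.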

How the values were obtained:
Test in all cases: growth of human tumour cells (NCI), 48 h
[1] = system: 786-0 renal
[2] = system: CAKI-1 renal
[3] = system: K-562 leukemia
[4] = system: MCF7 breast
[5] = system: RPMI-8226 leukemia
[6] = system: SK-MEL-2 melanoma
[7] = system: T-47D breast
[8] = system: UO-31 renal
[9] = system: SK-OV-3 ovarian

| SMILES | GI50 [1] [µM] | TGI [1] [µM] | GI50 [2] [µM] | TGI [2] [µM] | GI50 [3] [µM] | TGI [3] [µM] | GI50 [4] [µM] | TGI [4] [µM] | GI50 [5] [µM] | TGI [5] [µM] | GI50 [6] [µM] | TGI [6] [µM] | GI50 [7] [µM] | TGI [7] [µM] | GI50 [8] [µM] | TGI [8] [µM] | GI50 [9] [µM] | TGI [9] [µM] |
| --- | --- | --- | --- | --- | --- | --- | --- | --- | --- | --- | --- | --- | --- | --- | --- | --- | --- | --- |
| OC(c1cccc(-n2ccc(C(F)(F)F)n2)c1)c1cnccc1NC1CCCCCC1 (configuration not stated) | 1.72 | 3.18 | 1.57 | 2.96 | 1.37 | 4.96 | 1.53 | 3.11 | 1.57 | 4.51 | 2.01 | 3.82 | 1.77 | 4.23 | 1.37 | 2.7 | – | – |
| C=CC[n+]1c(/C=C/C=C2\N(C)c3ccccc3C2(C)C)sc2ccc(OC)cc21 | 0.363 | 18.8 | – | – | 0.165 | 12.8 | 0.157 | 11.4 | 0.0692 | 0.705 | 0.27 | 5.22 | 0.0231 | 0.561 | 1.53 | 8.82 | 0.21 | 0.769 |
| NCCNc1c2c(c(NCCN)c3c(CO)c[nH]c13)C(=O)c1ccccc1C2=O | 5.21 | > 100 | – | – | 9.54 | > 100 | 5.59 | 82 | 31.3 | > 100 | – | – | 7.59 | > 100 | 80.8 | > 100 | 5.96 | > 100 |
| CC1CC[C@]2(C(=O)O)CCC3(COC(=O)/C=C\c4ccc(O)cc4)C(=CCC4[C@@]5(C)CC[C@H](O)C(C)(C)C5CC[C@]43C)[C@@H]2[C@H]1C (some centres not stated) | – | 43.4 | – | 48.3 | – | > 100 | – | – | – | > 100 | – | 51.8 | – | – | – | 32.1 | – | 21.6 |
| CC1CC(C2=CC=CCS2)=Nc2ccccc2S1 (configuration not stated) | – | > 100 | – | > 100 | – | > 100 | – | – | – | > 100 | – | > 100 | – | – | – | > 100 | – | > 100 |
| Cc1ccc(NC(=O)c2cc3cc(N=Nc4ccc(Br)cc4)ccc3oc2=O)cc1 | – | > 100 | – | > 100 | – | – | – | – | – | > 100 | – | > 100 | – | – | – | – | – | > 100 |
| CN1N=CSC12C(=O)N(c1ccc(Cl)cc1)C(=O)N2c1ccc(Cl)cc1 (configuration not stated) | – | > 100 | – | > 100 | – | 22.3 | – | – | – | 7.21 | – | – | – | – | – | 8.08 | – | 32 |
| Cc1nc(-c2cccc(Nc3nc(-c4ccc(Cl)cc4)cs3)c2)cs1 | 10.9 | 21.8 | 11.8 | 24.6 | 8.06 | 21.4 | 14.7 | 43.7 | 21.3 | > 50 | 8.82 | 18.9 | – | – | 10 | 21.1 | 11.9 | 25.4 |
| COC(=O)C1=C(c2ccc(OC)c(OC)c2)OC(c2ccc(OC)c(OC)c2)C1 (configuration not stated) | – | > 100 | – | – | – | > 100 | – | – | – | > 100 | – | > 100 | – | – | – | > 100 | – | 96.7 |
| C/C(CN1C(=O)c2ccccc2C1=O)=N\NS(=O)(=O)c1ccc(C)cc1 | – | > 100 | – | > 100 | – | > 100 | – | – | – | > 100 | – | > 100 | – | – | – | > 100 | – | > 100 |
| NC1=NC(=O)/C(=C/c2ccccc2[N+](=O)[O-])C(N)=N1 | – | > 100 | – | > 100 | – | > 100 | – | – | – | > 100 | – | > 100 | – | – | – | > 100 | – | > 100 |
